Experimental findings from patent publication EP4509145A1, “PSMA THERANOSTIC COMPOUNDS ASSEMBLED WITH TETRAZINE-TRANS-CYCLOOCTENE LIGATION” (University of Copenhagen, priority 2023, dated 2025) are described below.

Read-outs that look alike come from different tables or passages of the source.

The nature of series [1]: in vivo PET imaging in rats of [^18F]-labeled PSMA derivatives. The following applies: healthy rats, i.v., 90-min PET acquisition (Figure 15). How it is done:
Long-Evans female rats weighing 200 - 300 g (Charles River, Calco, Italy), were housed in a cage of 2-3 rats per cage and kept in a climate-controlled facility with a 12-hr light/dark cycle. The cages had environmental enrichment (nest box, biting stick). All rats were fed ad libitum with commercial breeding diet (1310 FORTI-Avlsfoder, Brogaarden, Altromin International) and had free access to water. All the experiments were performed in accordance with the European Commission's Directive 2010/63/EU, FELASA and ARRIVE guidelines for animal research and, with approval from The Danish Council for Animal Ethics (license numbers 2017-15-0201-01283 and 2017-15-0201-01375) together with the Department of Experimental Medicine, University of Copenhagen.
The scans were performed on the Siemens HRRT (High-Resolution Research Tomography) (CPS Innovations/Siemens, Malvern, PA, USA). On the day of experiment, the rats were weighed and then transported to the scanner at least 2 h before the scan. Anesthesia was induced using 3% isoflurane in oxygen flow. All rats were placed in a 2 × 2 custom made rat holder, enabling simultaneous scanning of four rats 17-19. While in the custom-made rat holder, the rats were kept under anesthesia with a constant flow of isoflurane (-2% isoflurane in oxygen). […]

The test system of a further series is LNCaP cells. As to the kind of experiment: internalization assay (surface binding and internalization, with and without 2-PMPA block). It counts as cell-based. The following applies: for Cell surface / Internalized: n = 4; for Cell surface blocked / Internalized blocked: with 2-PMPA 500 µM/well. On the procedure: Poly-L-Lysine (300 µL of a 0.01% w/v in H2O) is added to each well of a 24-well plate (Greiner Bio). The plate is left at room temperature for 20-30 minutes. Afterwards, the poly-L-lysine solution is removed, and the wells washed with 500 µL of PBS. Afterwards, 1 mL of LNCaP cells suspension is placed in each well to obtain 10^5 cells/well. The 24-well plates are left in the incubator overnight until the start of the internalisation experiment. Subsequently, the previously plated cells were incubated at 37 °C with the selected ^18 F-labelled PSMA derivative in 250 µL growth medium for 45 min (c = 32 nM). For the determination of specific uptake, 2-PMPA was added into half of the wells in an excess concentration of 500 µM/well. After incubation, cellular uptake was interrupted by removing the medium and washing the cells with ice-cold PBS (3 × 1 mL). The surface bound radioactivity was removed by washing with 50 mM glycine (pH 2.8, 2 × 500 µL). Finally, the internalized fraction was determined by lysis of the cells with 0.3 M NaOH (1 × 500 µL). Fractions collected from the surface bound activity and lysates were collected and measured in a gamma counter. All counts were normalized to the starting activity and specific surface binding as well as specific internalization were determined by subtracting the non-specific binding obtained from the wells treated with 2-PMPA. Results were calculated and expressed as %AA/10^5 cells (% applied activity/105 cells, n = 4). [^68Ga]-PSMA617 was selected as a reference to compare internalization values. The experiment was conducted two times on different compounds. PSMA-617 was used as a reference and internal control for both experiments. […] The higher internalization could have a big impact on the therapeutic effect of such molecules.

In another series the target is T1, PSMA (Rattus norvegicus, UniProt P70627).
T1 construct: tissue Taconic Biosciences (rats); host or cells: rat brain, sagittal slices containing midbrain
Nature of the series: in vitro autoradiography competition assay on rat brain slices against [^111In]In-PSMA-617. The series is classed as binding. How it is done:
This method provided [^111In]-PSMA-617 in >95% radiochemical yield, as determined by reverse-phase HPLC.
Rat brain slices were obtained from female Sprague-Dawley rats (weight~250g; Taconic Biosciences). The rats were sacrificed by decapitation, brains were extracted, frozen at -80 °C and stored at the same temperature. To prepare slices for autoradiography, brains were cut into halves along the sagittal symmetry plane. Each half was mounted, lateral side up, on the cryostat sample holder pretreated by Tissue-Tek OCT compound and fixed by freezing in the cryostat. […]
For competition assay, the slides were incubated with 2 nM [^111In]In-PSMA-617 and increasing concentrations (0.1-30 nM) of investigated PSMA derivatives for the same amount of time in the same assay buffer. Non-specific binding was determined by adding 5 µM 2-(phosphonomethyl)pentanedioic acid (PMPA) to [^111In]In-PSMA-617 solutions. […]
The screens were then read by a Cyclone Plus storage phosphor system (Packard Instruments Co). Quantification of readings was done with Optiquant software (version 3.00, Packard Instruments Co). Namely, elliptic regions of interest (ROIs) encompassing the midbrain and cerebellar nuclei were drawn inside the brain slice images, while circular ROIs were drawn around calibration curve spots, and average exposure was calculated for both ROI categories. […]

Where [2] appears, read: first experiment, LNCaP, 37 °C, 45 min, c = 32 nM.
[3] abbreviates: second experiment ([^68Ga] compounds), LNCaP, 37 °C, 45 min, c = 32 nM.
[4] abbreviates: second experiment ([^68Ga] compounds).

T1 sequence (P70627 whole entry): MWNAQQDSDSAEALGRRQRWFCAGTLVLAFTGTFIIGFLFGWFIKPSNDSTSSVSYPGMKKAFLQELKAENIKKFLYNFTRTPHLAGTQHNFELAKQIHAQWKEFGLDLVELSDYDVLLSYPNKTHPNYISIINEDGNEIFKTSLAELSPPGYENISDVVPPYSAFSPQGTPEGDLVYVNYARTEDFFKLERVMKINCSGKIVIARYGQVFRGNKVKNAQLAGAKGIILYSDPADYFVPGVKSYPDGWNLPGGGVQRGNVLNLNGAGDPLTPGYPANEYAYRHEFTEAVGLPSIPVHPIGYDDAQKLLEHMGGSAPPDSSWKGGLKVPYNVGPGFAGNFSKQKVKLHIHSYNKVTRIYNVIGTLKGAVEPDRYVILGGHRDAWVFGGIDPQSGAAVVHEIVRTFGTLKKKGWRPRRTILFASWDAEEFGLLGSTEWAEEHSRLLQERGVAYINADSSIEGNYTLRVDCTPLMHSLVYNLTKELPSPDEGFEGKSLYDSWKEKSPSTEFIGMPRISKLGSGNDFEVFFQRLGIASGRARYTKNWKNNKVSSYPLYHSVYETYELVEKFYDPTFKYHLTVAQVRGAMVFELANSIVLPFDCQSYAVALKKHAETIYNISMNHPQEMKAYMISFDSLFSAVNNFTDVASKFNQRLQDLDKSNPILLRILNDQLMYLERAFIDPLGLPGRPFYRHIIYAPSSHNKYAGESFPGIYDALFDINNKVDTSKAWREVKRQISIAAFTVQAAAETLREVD

Turning to `O=C(O)CC[C@H](NC(=O)N[C@@H](CCCCNC(=O)[C@H](Cc1ccc2ccccc2c1)NC(=O)[C@H]1CC[C@H](CNC(=O)CN2C(=O)c3cc4nc5c(nc4cc3C2=O)CCc2c(cnnc2-c2ccc(OCCF)cc2)CC5)CC1)C(=O)O)C(=O)O` [[^18F]16, PSMA-NH-T4CO-FTz], in series [1], the excretion route entry was “excreted mainly through the liver”. In the series with LNCaP cells (setting [2]), this compound had a Cell surface of 0.36 ± 0.03 %AA/10^5 cells, an Internalized of 1.98 ±0.17 %AA/10^5 cells, a Cell surface blocked of 0.09 ± 0.01 %AA/10^5 cells and an Internalized blocked of 0.78 ± 0.11 %AA/10^5 cells.

In the series with LNCaP cells (setting [2]), `O=C(O)CC[C@H](NC(=O)N[C@@H](CCCCNC(=O)[C@H](Cc1ccc2ccccc2c1)NC(=O)[C@H]1CC[C@H](CNC(=O)CN2CCN(CC(=O)O)CCN(CC(=O)O)CCN(CC(=O)O)CC2)CC1)C(=O)O)C(=O)O` [[^68Ga]-PSMA-617, vipivotide tetraxetan, metal not drawn, reference compound] came in with a Cell surface of 0.36 ± 0.03 %AA/10^5 cells, an Internalized of 0.27± 002 %AA/10^5 cells, a Cell surface blocked of 0.03± 0.01 %AA/10^5 cells and an Internalized blocked of 0.03 ± 0.01 %AA/10^5 cells. For the same compound, in the series on LNCaP cells (setting [3]), the Cell surface worked out at 0.36 ± 0.03 %AA/10^5 cells and the Internalized turned out to be 0.13± 001 %AA/10^5 cells. In the series on LNCaP cells (setting [4]), this compound had a Cell surface blocked of 0.03± 0.01 %AA/10^5 cells and an Internalized blocked of 0.02 ± 0.01 %AA/10^5 cells.

With `N=C(N)NCCCC(NC(=O)CN1C(=O)c2cc3nc4c(nc3cc2C1=O)CCc1c(cnnc1-c1ccc(OCC[18F])cc1)CC4)C(=O)NC(CCCNC(=N)N)C(=O)NC(CCCNC(=N)N)C(=O)NCC1CCC(C(=O)NC(Cc2ccc3ccccc3c2)C(=O)NCCCCC(NC(=O)NC(CCC(=O)O)C(=O)O)C(=O)O)CC1` (centres unmarked) [[^18F]40, PSMA-3Arg-NH-T4CO-FTz], the inhibition constant Ki on PSMA (read-out: Affinity (Ki), competition with 2 nM [^111In]In-PSMA-617, 1.5 h, Ki from IC50 by Cheng-Prusoff, mean ± SD, number of determinations in parentheses) turned out to be 47.5 nM. In the series with LNCaP cells (setting [2]), this compound returned a Cell surface of 5.15 ± 0.87 %AA/10^5 cells, an Internalized of 4.53 ± 0.55 %AA/10^5 cells, a Cell surface blocked of 4.70 ± 1.05 %AA/10^5 cells and an Internalized blocked of 4.10 ± 0.65 %AA/10^5 cells.

Turning to `N=C(N)NCCCC(NC(=O)CN1C(=O)c2cc3nc4c(nc3cc2C1=O)CCc1c(cnnc1-c1ccc(OCC[18F])cc1)CC4)C(=O)NC(CCC(=O)O)C(=O)NC(CCCNC(=N)N)C(=O)NC(CCC(=O)O)C(=O)NC(CCCNC(=N)N)C(=O)NC(CCC(=O)O)C(=O)NCC1CCC(C(=O)NC(Cc2ccc3ccccc3c2)C(=O)NCCCCC(NC(=O)NC(CCC(=O)O)C(=O)O)C(=O)O)CC1` (centres unmarked) [[^18F]30, PSMA-NH-AAAAAA-T4CO-FTz], the Ki at PSMA (competition with 2 nM [^111In]In-PSMA-617, 1.5 h, Ki from IC50 by Cheng-Prusoff, mean ± SD, number of determinations in parentheses, read-out: Affinity (Ki)) came to 3.1 ± 0.28 nM. Besides, in the series with LNCaP cells (setting [2]), the Cell surface was 0.64 ± 0.10 %AA/10^5 cells, the Internalized was determined as 0.54 ± 0.06 %AA/10^5 cells, the Cell surface blocked is on record as 0.08 ± 0.01 %AA/10^5 cells and the Internalized blocked is recorded as 0.07 ± 0.01 %AA/10^5 cells.
